Key:
Assay type in all cases: functional
[1] = Cytotoxicity against human non-small cell lung cancer cells after 48 hrs by SRB assay; conditions: Cancer cell lines
[2] = Cytotoxicity against human prostate cancer cells after 48 hrs by SRB assay; conditions: Cancer cell lines
[3] = Cytotoxicity against human breast cancer cells after 48 hrs by SRB assay; conditions: Cancer cell lines
[4] = Cytotoxicity against human renal cancer cells after 48 hrs by SRB assay; conditions: Cancer cell lines
[5] = Cytotoxicity against human melanoma cells after 48 hrs by SRB assay; conditions: Melanoma cell
[6] = Cytotoxicity against human ovarian cancer cells after 48 hrs by SRB assay; conditions: Cancer cell lines
[7] = Cytotoxicity against human CNS cancer cells after 48 hrs by SRB assay; conditions: Cancer cell lines
[8] = Cytotoxicity against human colon cancer cells after 48 hrs by SRB assay; conditions: Cancer cell lines
[9] = Cytotoxicity against human leukemia cells after 48 hrs by SRB assay; conditions: Leukemia cell
[10] = system: HCT-116; assay: Cytotoxicity against human HCT116 cells assessed as cell growth at 10 uM after 48 hrs by SRB assay; conditions: HCT-116, 48 h, read-out: Activity
[11] = read-out: LC50 (the source's name)

With `O=C1N=C(N2N=C(c3ccccc3)CC2c2ccccc2O)S/C1=C1/C(=O)Nc2ccccc21` (stereo not drawn) the GI50 [1] was 2.03 µM, the TGI [1] was 4.73 µM and the CC50 [1, 11] was 57.2 µM. It also gave a GI50 [2] of 2.05 µM, an LC50 [2] of 54.7 µM and a TGI [2] of 4.35 µM. The GI50 [3] was 2.09 µM, the LC50 (concentration causing 50% net cell kill) [3] was 64.6 µM and the TGI [3] was 4.77 µM. For the same compound, the GI50 [4] was 2.07 µM, the LC50 [4] was 55.8 µM and the TGI [4] was 17.8 µM. It also gave a GI50 [5] of 2.04 µM, a TGI [5] of 4.4 µM and a CC50 [5, 11] of 60.8 µM. The GI50 [6] was 2.41 µM, the LC50 (concentration causing 50% net cell kill) [6] was 81.5 µM and the TGI [6] was 36.6 µM. The GI50 [7] was 2.13 µM, the LC50 (concentration giving 50% net cell kill) [7] was 68.1 µM and the TGI [7] was 5.37 µM. For the same compound, the GI50 [8] was 1.99 µM, the LC50 (concentration lethal to 50% of cells) [8] was 33.4 µM and the TGI [8] was 4.22 µM. It also gave a GI50 [9] of 3.19 µM, a TGI [9] of 48.8 µM and a CC50 [9, 11] of 100 µM. For the same compound, the growth at 10 µM [10] was -37.4%.

Source: ChEMBL document CHEMBL2169792, “Synthesis of new 4-thiazolidinone-, pyrazoline-, and isatin-based conjugates with promising antitumor activity” (J Med Chem, 2012)
